Data published in patent publication US20220235030A1, “SELECTIVE HISTAMINE H3 ANTAGONIST ACID ADDITION SALTS AND PROCESS FOR THE PREPARATION THEREOF” (RICHTER GEDEON NYRT., priority 2019, published 2022).
“Also recorded” adds a separate entry of the source. Counter-ions that a name gives are not always drawn. Like-named read-outs stand apart in the source and are kept apart here.

Columns and labels:
Type in all cases: physicochemical
[1] = Dynamic vapor sorption (DVS) analysis at 25° C., hygroscopicity and deliquescence; set-up: Δm/ΔRH: unit not given beside the values; settings: for Critical Relative Humidity (CRH): RH1 of first sorption step with Δm/ΔRH≥0.5; for Δm/ΔRH: 25° C.
Description: Determination of the critical relative humidity is feasible by gravimetric method, e.g. with DVS, where relative humidity is changed in suitably selected steps and a sufficiently long time is used to the onset of quasi-equilibrium.
The deliquescence tendency of each salt is characterized by the critical relative humidity (CRH) value (Table 1), which was determined based on the sorption curves measured according to the measurement parameter settings below, with DVS analysis at 25° C. isotherm conditions, according to the following. […]
If the given sorption step is Δm/ΔRH≥0.5, then RH1 is considered to be the critical relative humidity (CRH) value indicating the end point of the physical stability of the substance. The value thus determined is a good match with the onset of a significant monotonic weight gain observed visually on the sorption curve. Above the critical relative humidity value, it is the process of deliquescence of the substance that determines the weight gain observed on the sorption curve.

[2] = Thermogravimetric (TG) analysis of thermal stability
Source text: The compound of 1-[4-(4-{3-[(2R)-2-methyl-pyrrolidin-1-yl]-propoxy}-phenoxy)-piperidin-1-yl]-ethanone contains a single strongly basic center (pyrrolidine nitrogen), which is capable of forming stoichiometric salt with equimolar hydrochloride, thus the formation of dihydrochloride stoichiometry is not expected in view of the acid/base character of the compound. Based on TG and DSC analysis, the second molar amount of hydrochloride is less strongly bound to the crystal lattice, behaving as a volatile component. […] (FIG. 8). Parallelly to this process, according to the DSC and microscopic analysis, the sample starting from approx. 100° C. melts during decomposition (FIG. 9).

[3] = Solubility in simulated gastric fluid; settings: simulated gastric fluid (SGF without pepsin, pH=1.3)
Source text: The generally observed hygroscopic nature of the 1-[4-(4-{3-[(2R)-2-methyl-pyrrolidin-1-yl]-propoxy}-phenoxy)-piperidin-1-yl]-ethanone salts is inter alia related to the good solubility thereof.

[4] = 10-day solid stress stability study, HPLC purity test; settings: for chemical stability (in words): 10-day solid stress: heat, heat and humidity
Source text: Increased stability to ambient humidity is beneficial for longer-term physical and chemical stability of the active ingredient. The relationship between the reduced hygroscopic nature and the increased chemical stability associated with it is shown in the most preferred citrate salts in comparison to the dihydrochloride salt.

With `CC(=O)N1CCC(Oc2ccc(OCCCN3CCC[C@H]3C)cc2)CC1` [diHCl, 1-[4-(4-{3-[(2R)-2-methyl-pyrrolidin-1-yl]-propoxy}-phenoxy)-piperidin-1-yl]-ethanone dihydrochloride salt] the “Critical Relative Humidity (CRH)” value ([1]; DVS at 25° C., dihydrochloride salt) was 60%, the Δm/ΔRH ([1]; RH1 0%, sorption, dihydrochloride salt) was 0.0 and the Δm/ΔRH ([1]; RH1 10%, sorption, dihydrochloride salt) was 0.0. The Δm/ΔRH ([1]; RH1 20%, sorption, dihydrochloride salt) was 0.0, the Δm/ΔRH ([1]; RH1 30%, sorption, dihydrochloride salt) was 0.0 and the Δm/ΔRH ([1]; RH1 40%, sorption, dihydrochloride salt) was 0.0. For the same compound, the Δm/ΔRH ([1]; RH1 50%, sorption, dihydrochloride salt) was 0.0, the Δm/ΔRH ([1]; RH1 60%, sorption, dihydrochloride salt) was 1.7 and the Δm/ΔRH ([1]; RH1 70%, sorption, dihydrochloride salt) was 2.4. For the same compound, the Δm/ΔRH ([1]; RH1 80%, sorption, dihydrochloride salt) was 2.1, the “hygroscopicity (in words)” value ([1]; dihydrochloride salt) was “highly hygroscopic” and the relative weight gain ([1]; sorption curve, at 70% RH) was 17%. The relative weight change ([1]; sorption curve, at 90% RH) was 63%, the “water bound relative to the dried mass” value ([1]; sorption curve, up to 60% RH) was “about 0.7%” and the “relative humidity above which high, continuous weight gain (deliquescence) is observed” value ([1]; sorption, DVS at 25° C., dihydrochloride salt) was “above 60%”. The “thermal stability (in words)” value [2] was “thermally poorly stable”, the solubility ([3]; dihydrochloride salt) was “greater than 59 mM” and the “chemical stability (in words)” value ([4]; dihydrochloride salt) was “slightly degraded by heat; also recorded: degrades significantly under the combined effect of heat and humidity”. The “All contaminant (area %)” value ([4]; 10 days, 40° C., 75% RH, open glass, dihydrochloride salt) was 59.56% area %, the “All contaminant (area %)” value ([4]; 10 days, 50° C., 75% RH, open glass, dihydrochloride salt) was 51.32% area % and the “All contaminant (area %)” value ([4]; 10 days, 50° C., sealed glass, dihydrochloride salt) was 0.98% area %. For the same compound, the “All contaminant (area %)” value ([4]; 10 days, 75° C., sealed glass, dihydrochloride salt) was 1.50% area % and the “All contaminant (area %)” value ([4]; starting sample, dihydrochloride salt) was 0.85% area %.

In the case of `CC(=O)N1CCC(Oc2ccc(OCCCN3CCC[C@H]3C)cc2)CC1` [monocitrate, 1-[4-(4-{3-[(2R)-2-methyl-pyrrolidin-1-yl]-propoxy}-phenoxy)-piperidin-1-yl]-ethanone monocitrate salt Form A], the “hygroscopicity (in words)” value [1] is reported as “poorly hygroscopic”, the “Critical Relative Humidity (CRH)” value ([1]; DVS at 25° C.) is reported as “not deliquescent” and the Δm/ΔRH ([1]; RH1 0%, sorption) is reported as 0.0. The Δm/ΔRH ([1]; RH1 10%, sorption) was 0.0, the Δm/ΔRH ([1]; RH1 20%, sorption) was 0.2 and the Δm/ΔRH ([1]; RH1 30%, sorption) was 0.1. For the same compound, the Δm/ΔRH ([1]; RH1 40%, sorption) was 0.0, the Δm/ΔRH ([1]; RH1 50%, sorption) was 0.0 and the Δm/ΔRH ([1]; RH1 60%, sorption) was 0.0. For the same compound, the Δm/ΔRH ([1]; RH1 70%, sorption) was 0.0, the Δm/ΔRH ([1]; RH1 80%, sorption) was 0.0 and the “deliquescence (in words)” value ([1]; above 90% RH, DVS 25° C.) was “did not show deliquescence”. The “relative humidity at which monohydrate Form A converts to anhydrate Form B” value ([1]; during desorption) was “below 10 % RH”, the “deliquescence (in words)” value ([1]; under the conditions of the DVS analysis) was “not deliquescent” and the “deliquescence (in words)” value ([1]; under the conditions of the DVS analysis, listed as Monocitrate) was “do not show deliquescence”. The solubility [3] was “greater than 44 mM”, the “chemical stability (in words)” value [4] was “stable” and the “All contaminant (area %)” value ([4]; 10 days, 40° C., 75% RH, open glass) was 0.19% area %. The “All contaminant (area %)” value ([4]; 10 days, 50° C., 75% RH, open glass) was 0.19% area %, the “All contaminant (area %)” value ([4]; 10 days, 50° C., sealed glass) was 0.20% area % and the “All contaminant (area %)” value ([4]; 10 days, 75° C., sealed glass) was 0.19% area %. For the same compound, the “All contaminant (area %)” value ([4]; starting sample) was 0.19% area %.
